Data reported in US20190048016A1, “SUBSTITUTED BRIDGED UREA ANALOGS AS SIRTUIN MODULATORS” (GlaxoSmithKline Intellectual Property(No.2)Limited, priority 2014, published 2019).

Target: T1, SIRT1 (Homo sapiens, UniProt Q96EB6)
T1 sequence (Q96EB6 1-747): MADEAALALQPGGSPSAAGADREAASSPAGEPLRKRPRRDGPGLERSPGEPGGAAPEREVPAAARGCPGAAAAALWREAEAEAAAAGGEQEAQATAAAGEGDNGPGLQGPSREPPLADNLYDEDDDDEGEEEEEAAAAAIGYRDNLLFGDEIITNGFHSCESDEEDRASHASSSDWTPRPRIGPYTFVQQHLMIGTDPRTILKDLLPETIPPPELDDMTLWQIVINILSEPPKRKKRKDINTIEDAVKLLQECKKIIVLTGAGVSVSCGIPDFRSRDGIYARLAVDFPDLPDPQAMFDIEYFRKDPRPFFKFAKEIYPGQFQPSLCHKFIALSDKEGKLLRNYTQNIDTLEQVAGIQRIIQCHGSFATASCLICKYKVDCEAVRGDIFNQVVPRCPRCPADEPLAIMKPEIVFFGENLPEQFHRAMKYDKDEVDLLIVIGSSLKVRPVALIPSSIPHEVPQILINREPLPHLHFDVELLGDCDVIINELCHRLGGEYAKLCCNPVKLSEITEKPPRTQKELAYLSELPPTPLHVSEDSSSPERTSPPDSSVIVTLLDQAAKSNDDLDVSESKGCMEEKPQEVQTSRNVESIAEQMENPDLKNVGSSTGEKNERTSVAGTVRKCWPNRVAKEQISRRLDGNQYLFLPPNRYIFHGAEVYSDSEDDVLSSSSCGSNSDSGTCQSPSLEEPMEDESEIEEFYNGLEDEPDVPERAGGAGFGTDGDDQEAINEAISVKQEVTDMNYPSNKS
Test: Trp mass spectrometry assay of SIRT1 activation (deacetylation of Ac-R-H-K-K(Ac)-W-NH2 peptide, OAADPR formation)
Format: biochemical
Details: Trp peptide 0.5 μM, 120 μM βNAD+, 10 nM SIRT1, 25 min, 25° C.; for Emax: 25 min, read-out: TRP MAX RESP (percent maximum fold activation relative to control = 100%)
Excerpt: Mass spectrometry based assays were used to identify modulators of SIRT1 activity. The TAMRA based assay utilized a peptide having 20 amino acid residues as follows: Ac-EE-K(biotin)-[…](Ac)NleSTEG-K(5TMR)-EE-NH2 (SEQ ID NO: 1), wherein K(Ac) is an acetylated lysine residue and Nle is a norleucine. The peptide was labeled with the fluorophore 5TMR (excitation 540 nm/emission 580 nm) at the C-terminus. The sequence of the peptide substrate was based on p53 with several modifications. In addition, the methionine residue naturally present in the sequence was replaced with the norleucine because the methionine may be susceptible to oxidation during synthesis and purification. The Trp based assay utilized a peptide having an amino acid residues as follows: Ac-R-H-K-K(Ac)-W-NH2 (SEQ ID NO: 2).
The Trp mass spectrometry assay was conducted as follows. 0.5 μM peptide substrate and 120 μM βNAD^+ were incubated with 10 nM SIRT1 for 25 minutes at 25° C. in a reaction buffer (50 mM HEPES pH 7.5, […], 1 mM DTT, 0.05% BSA). The SIRT1 protein was obtained by cloning the SirT1 gene into a T7-promoter containing vector, which was then expressed in BL21(DE3) bacterial cells and purified as described in further detail below. Test compound was added at varying concentrations to this reaction mixture and the resulting reactions were monitored. After the 25 minute incubation with SIRT1, 10 μL of 10% formic acid was added to stop the reaction. The resulting reactions were sealed and frozen for later mass spec analysis. The relative SIRT1 activity was then determined by measuring the amount of O-acetyl-ADP-ribose (OAADPR) formed (or, alternatively, the amount of deacetylated Trp peptide generated) by the NAD-dependent sirtuin deacetylation reaction in the presence of varying concentrations of the test compound versus control reactions lacking the test compound. The degree to which the test agent activated deacetylation by SIRT1 was expressed as EC1.5 (i.e., the concentration of compound required to increase SIRT1 activity by 50% over the control lacking test compound), and Percent Maximum Activation (i.e., the maximum activity relative to control (100%) obtained for the test compound).
A control for inhibition of sirtuin activity was conducted by adding 1 μL of 500 mM nicotinamide as a negative control at the start of the reaction (e.g., permits determination of maximum sirtuin inhibition). A control for activation of sirtuin activity was conducted using 10 nM of sirtuin protein, with 1 μL of DMSO in place of compound, to determine the amount of deacetylation of the substrate at a given time point within the linear range of the assay. This time point was the same as that used for test compounds and, within the linear range, the endpoint represents a change in velocity.
For the above assay, SIRT1 protein was expressed and purified as follows. The SirT1 gene was cloned into a T7-promoter containing vector and transformed into BL21(DE3). The protein was expressed by induction with 1 mM IPTG as an N-terminal His-tag fusion protein at 18° C. overnight and harvested at 30,000×g. Cells were lysed with lysozyme in lysis buffer (50 mM Tris-HCl, 2 mM Tris[2-carboxyethyl] phosphine (TCEP), 10 μM ZnCl2, 200 mM NaCl) and further treated with sonication for 10 min for complete lysis. The protein was purified over a Ni-NTA column (Amersham) and fractions containing pure protein were pooled, concentrated and run over a sizing column (Sephadex S200 26/60 global). The peak containing soluble protein was collected and run on an Ion-exchange column (MonoQ). Gradient elution (200 mM-500 mM NaCl) yielded pure protein. This protein was concentrated and dialyzed against dialysis buffer (20 mM Tris-HCl, 2 mM TCEP) overnight. The protein was aliquoted and frozen at −80° C. until further use.
Sirtuin-modulating compounds of Formula (I) that activated SIRT1 were identified using the assay described above and are shown below in Table 1. […]

Row | SMILES | Emax | TRP Activity (EC1.5, concentration of compound required to increase SIRT1 activity by 50% over control)
1 | Cc1cc(-c2ccc3c(n2)N(C(=O)Nc2cccnn2)[C@H]2CCCN3C2)ccn1 [Example 14, (9S)-2-(2-methylpyridin-4-yl)-N-(pyridazin-3-yl)-8,9-dihydro-6H-5,9-methanopyrido[2,3-b][1,4]diazocine-10(7H)-carboxamide] | ≥ 150% | A (EC1.5<1 μM)
2 | Cc1cc(-c2ccc3c(n2)N(C(=O)Nc2ccc4nn(C)cc4c2)[C@H]2CCCN3C2)ccn1 [Example 15, (9S)-N-(2-methyl-2H-indazol-5-yl)-2-(2-methylpyridin-4-yl)-8,9-dihydro-6H-5,9-methanopyrido[2,3-b][1,4]diazocine-10(7H)-carboxamide] | ≥ 150% | A (EC1.5<1 μM)
3 | Cc1cc(-c2ccc3c(n2)N(C(=O)Nc2cncnc2)[C@H]2CCCN3C2)ccn1 [Example 16, (9S)-2-(2-methylpyridin-4-yl)-N-(pyrimidin-5-yl)-8,9-dihydro-6H-5,9-methanopyrido[2,3-b][1,4]diazocine-10(7H)-carboxamide] | ≥ 150% | B (EC1.5 1-25 μM)
4 | O=C(Nc1cnccn1)N1c2nc(-c3ccnc(C(F)(F)F)c3)ccc2N2CCC[C@H]1C2 [Example 17, (9S)-N-(pyrazin-2-yl)-2-(2-(trifluoromethyl)pyridin-4-yl)-8,9-dihydro-6H-5,9-methanopyrido[2,3-b][1,4]diazocine-10(7H)-carboxamide] | ≥ 150% | A (EC1.5<1 μM)
5 | Cc1cc(-c2ccc3c(n2)N(C(=O)Nc2nc(C)c(C)s2)[C@H]2CCCN3C2)ccn1 [Example 19, (9S)-N-(4,5-dimethylthiazol-2-yl)-2-(2-methylpyridin-4-yl)-8,9-dihydro-6H-5,9-methanopyrido[2,3-b][1,4]diazocine-10(7H)-carboxamide] | ≥ 150% | A (EC1.5<1 μM)
6 | COc1cncc(NC(=O)N2c3nc(-c4ccnc(C)c4)ccc3N3CCC[C@H]2C3)n1 [Example 20, (9S)-N-(6-methoxypyrazin-2-yl)-2-(2-methylpyridin-4-yl)-8,9-dihydro-6H-5,9-methanopyrido[2,3-b][1,4]diazocine-10(7H)-carboxamide] | ≥ 150% | A (EC1.5<1 μM)
7 | Cc1cc(-c2ccc3c(n2)N(C(=O)Nc2cncc(C)n2)[C@H]2CCCN3C2)ccn1 [Example 21] | ≥ 150% | B (EC1.5 1-25 μM)
8 | Cc1cc(-c2ccc3c(n2)N(C(=O)Nc2cnn(C)c2)[C@H]2CCCN3C2)ccn1 [Example 26, (9S)-N-(1-methyl-1H-pyrazol-4-yl)-2-(2-methylpyridin-4-yl)-8,9-dihydro-6H-5,9-methanopyrido[2,3-b][1,4]diazocine-10(7H)-carboxamide] | ≥ 150% | B (EC1.5 1-25 μM)
9 | Cc1cc(-c2ccc3c(n2)N(C(=O)Nc2cccnc2)[C@H]2CCCN3C2)ccn1 [Example 32, (9S)-2-(2-methylpyridin-4-yl)-N-(pyridin-3-yl)-8,9-dihydro-6H-5,9-methanopyrido[2,3-b][1,4]diazocine-10(7H)-carboxamide] | ≥ 150% | A (EC1.5<1 μM)
10 | O=C(NC1CC1)c1nc2c(cc1Cl)N1CCC[C@@H](C1)N2C(=O)Nc1ccccn1 [Example 33, (9S)-3-chloro-N2-cyclopropyl-N10-(pyridin-2-yl)-8,9-dihydro-6H-5,9-methanopyrido[2,3-b][1,4]diazocine-2,10(7H)-dicarboxamide] | ≥ 150% | B (EC1.5 1-25 μM)
11 | C[C@@H](NC(=O)c1ccc2c(n1)N(C(=O)Nc1cc(OC[C@H](O)CO)ccn1)[C@H]1CCCN2C1)C(F)(F)F [Example 34, (9S)-N10-(4-((R)-2,3-dihydroxypropoxy)pyridin-2-yl)-N2-((R)-1,1,1-trifluoropropan-2-yl)-8,9-dihydro-6H-5,9-methanopyrido[2,3-b][1,4]diazocine-2,10(7H)-dicarboxamide] | ≥ 150% | A (EC1.5<1 μM)
12 | CC(F)(F)CNC(=O)c1ccc2c(n1)N(C(=O)Nc1cc(OC[C@H](O)CO)ccn1)[C@H]1CCCN2C1 [Example 35, (9S)-N2-(2,2-difluoropropyl)-N10-(4-((R)-2,3-dihydroxypropoxy)pyridin-2-yl)-8,9-dihydro-6H-5,9-methanopyrido[2,3-b][1,4]diazocine-2,10(7H)-dicarboxamide] | ≥ 150% | A (EC1.5<1 μM)
13 | O=C(NC1CC1)c1ccc2c(n1)N(C(=O)Nc1ccccn1)[C@H]1CCCN2C1 [Example 36, (9S)-N2-cyclopropyl-N10-(pyridin-2-yl)-8,9-dihydro-6H-5,9-methanopyrido[2,3-b][1,4]diazocine-2,10(7H)-dicarboxamide] | ≥ 150% | A (EC1.5<1 μM)
14 | O=C(NCC(F)(F)F)c1ccc2c(n1)N(C(=O)Nc1ccccn1)[C@H]1CCCN2C1 [Example 37, (9S)-N10-(pyridin-2-yl)-N2-(2,2,2-trifluoroethyl)-8,9-dihydro-6H-5,9-methanopyrido[2,3-b][1,4]diazocine-2,10(7H)-dicarboxamide] | ≥ 150% | A (EC1.5<1 μM)
15 | O=C(NCC(F)(F)F)c1nc2c(cc1Cl)N1CCC[C@@H](C1)N2C(=O)Nc1ccccn1 [Example 38, (9S)-3-chloro-N10-(pyridin-2-yl)-N2-(2,2,2-trifluoroethyl)-8,9-dihydro-6H-5,9-methanopyrido[2,3-b][1,4]diazocine-2,10(7H)-dicarboxamide] | ≥ 150% | A (EC1.5<1 μM)
